From patent publication US8975398B2, “NAMPT inhibitors” (AbbVie Inc., priority 2012, dated 2015)
pIC50: −log10 of the molar value.

What was measured:
[1] = target: NAMPT (Homo sapiens, UniProt P43490); assay: Time-Resolved Fluorescence Resonance Energy Transfer (TR-FRET) Binding Assay of NAMPT with PRPP; conditions: 2 nM NAMPT, 2 nM probe, 200 uM PRPP and 2.5 mM ATP, equilibrated 16 hours
Procedure, shortened: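 Final mix: 2 nM NAMPT, 2 nM probe, 1 nM Tb-anti-His antibody, 200 uM PRPP, 2.5 mM ATP, 2% DMSO in 1× assay buffer. Equilibrated 16 hours before TR-FRET read, allowing possible enzymatic modification of compounds.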

[2] = target: NAMPT (human, recombinant, C-terminally His-tagged) (Homo sapiens, UniProt P43490); assay: Time-Resolved Fluorescence Resonance Energy Transfer (TR-FRET) Binding Assay of NAMPT; conditions: 6.8 nM NAMPT, 200 nM probe, equilibrated 3 hours, absence of substrates
Chain of NAMPT (human, recombinant, C-terminally His-tagged) (P43490 whole entry): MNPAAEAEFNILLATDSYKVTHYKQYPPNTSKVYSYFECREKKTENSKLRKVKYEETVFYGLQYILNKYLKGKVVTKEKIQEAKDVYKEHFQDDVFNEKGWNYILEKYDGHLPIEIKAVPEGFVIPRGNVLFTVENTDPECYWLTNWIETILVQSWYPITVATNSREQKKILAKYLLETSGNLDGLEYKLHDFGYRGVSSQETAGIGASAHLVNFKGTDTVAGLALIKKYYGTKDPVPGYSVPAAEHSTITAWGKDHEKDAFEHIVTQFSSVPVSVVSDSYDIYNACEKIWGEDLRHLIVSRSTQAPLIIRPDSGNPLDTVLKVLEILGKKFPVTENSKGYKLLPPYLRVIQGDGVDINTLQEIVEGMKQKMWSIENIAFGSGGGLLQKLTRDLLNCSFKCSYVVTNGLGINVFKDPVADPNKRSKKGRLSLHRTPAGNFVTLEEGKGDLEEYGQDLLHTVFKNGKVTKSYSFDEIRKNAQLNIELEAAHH
Procedure, shortened: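 Recombinant C-terminally His-tagged human NAMPT (6.8 nM) incubated 3 h at room temperature with 200 nM Oregon Green 488–labelled nicotinamide-competitive probe and 1 nM Tb-anti-His antibody in HEPES pH 7.5, 2% DMSO. TR-FRET ratio Em520/Em495 normalized to controls; IC50 from four-parameter logistic fit.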

Chain of NAMPT (P43490 whole entry): as above

Compound | pIC50 [1] | pIC50 [2]
CCC(C)(C)C(=O)N1CCC(c2ccc(NC(=O)C3CN(c4cccnc4)C3)cc2)CC1 [Example 133, N-{4-[1-(2,2-dimethylbutanoyl)piperidin-4-yl]phenyl}-1-(pyridin-3-yl)azetidine-3-carboxamide] | 9.20 | 7.92
CC(C)C(=O)N1CCC(c2ccc(NC(=O)C3CN(c4cccnn4)C3)cc2)CC1 [Example 147, N-{4-[1-(2-methylpropanoyl)piperidin-4-yl]phenyl}-1-(pyridazin-3-yl)azetidine-3-carboxamide] | 8.83 | 7.46
O=C(Nc1ccc(OC2CCN(C(=O)c3cc(F)cc(F)c3)CC2)cc1)C1CN(c2cccnn2)C1 [Example 243, N-(4-{[1-(3,5-difluorobenzoyl)piperidin-4-yl]oxy}phenyl)-1-(pyridazin-3-yl)azetidine-3-carboxamide] | 9.01 | 6.57
Cc1ncccc1N1CC(C(=O)Nc2ccc(C3CCN(C(=O)CC(C)(C)C)CC3)cc2)C1 [Example 192, N-{4-[1-(3,3-dimethylbutanoyl)piperidin-4-yl]phenyl}-1-(2-methylpyridin-3-yl)azetidine-3-carboxamide] | 7.14 | 7.33
O=C(Nc1ccc(C2CCN(C(=O)CN3CCOCC3)CC2)cc1)C1CN(c2cccnc2)C1 [Example 103, N-{4-[1-(morpholin-4-ylacetyl)piperidin-4-yl]phenyl}-1-(pyridin-3-yl)azetidine-3-carboxamide] | 9.31 | 7.25
CCC(CC)CN1CCC(c2ccc(NC(=O)C3CN(c4cccnc4)C3)cc2)CC1 [Example 92, N-{4-[1-(2-ethylbutyl)piperidin-4-yl]phenyl}-1-(pyridin-3-yl)azetidine-3-carboxamide] | 9.26 | 6.11
O=C(Nc1ccc(C2CCN(C(=O)c3ccoc3)CC2)cc1)C1CN(c2cccnc2)C1 [Example 104, N-{4-[1-(furan-3-ylcarbonyl)piperidin-4-yl]phenyl}-1-(pyridin-3-yl)azetidine-3-carboxamide] | 9.71 | 8.92
CC(C)(C)C(=O)N1CCC(Oc2ccc(NC(=O)C3CN(c4cccnn4)C3)cc2)CC1 [Example 241, N-(4-{[1-(2,2-dimethylpropanoyl)piperidin-4-yl]oxy}phenyl)-1-(pyridazin-3-yl)azetidine-3-carboxamide] | 9.09 | 6.88
O=C(Nc1ccc(OC2CCN(C(=O)[C@@H]3CCCO3)CC2)cc1)[C@H]1CCN(c2cccnc2)C1 [Example 13, (3S)-1-(pyridin-3-yl)-N-[4-({1-[(2S)-tetrahydrofuran-2-ylcarbonyl]piperidin-4-yl}oxy)phenyl]pyrrolidine-3-carboxamide] | 8.54 | 6.07
Cc1ncccc1N1CC(C(=O)Nc2ccc(C3CCN(C(=O)c4cccc(Cl)c4)CC3)cc2)C1 [Example 153, N-{4-[1-(3-chlorobenzoyl)piperidin-4-yl]phenyl}-1-(2-methylpyridin-3-yl)azetidine-3-carboxamide] | 6.91 | 6.58
O=C(Nc1ccc(OC2CN(C(=O)C(F)(F)c3ccccc3)C2)cc1)C1CN(c2ccnnc2)C1 [Example 201, N-[4-({1-[difluoro(phenyl)acetyl]azetidin-3-yl}oxy)phenyl]-1-(pyridazin-4-yl)azetidine-3-carboxamide] | 7.74 | 7.92
O=C(Nc1ccc(OC2CCN(C(=O)C3CCCC3)CC2)cc1)C1CN(c2cccnc2)C1 [Example 52, N-(4-{[1-(cyclopentylcarbonyl)piperidin-4-yl]oxy}phenyl)-1-(pyridin-3-yl)azetidine-3-carboxamide] | 9.16 | 7.29
O=C(Nc1ccc(OC2CCN(C(=O)[C@@H]3CCCO3)CC2)cc1)C1CN(c2cccnc2)C1 [Example 33, 1-(pyridin-3-yl)-N-[4-({1-[(2S)-tetrahydrofuran-2-ylcarbonyl]piperidin-4-yl}oxy)phenyl]azetidine-3-carboxamide] | 9.47 | 6.96
O=C(Nc1ccc(OC2CCN(C(=O)c3cccc(F)c3)CC2)cc1)C1CN(c2cccnn2)C1 [Example 231, N-(4-{[1-(3-fluorobenzoyl)piperidin-4-yl]oxy}phenyl)-1-(pyridazin-3-yl)azetidine-3-carboxamide] | 9.08 | 6.76
CCC(=O)N1CCC(c2ccc(NC(=O)C3CN(c4cccnc4C)C3)cc2)CC1 [Example 181, 1-(2-methylpyridin-3-yl)-N-[4-(1-propanoylpiperidin-4-yl)phenyl]azetidine-3-carboxamide] | 6.89 | 6.55
O=C(Nc1ccc(OC2CCN(C(=O)C3CCCO3)CC2)cc1)C1CN(c2cccnn2)C1 (centres unmarked) [Example 221, 1-(pyridazin-3-yl)-N-(4-{[1-(tetrahydrofuran-2-ylcarbonyl)piperidin-4-yl]oxy}phenyl)azetidine-3-carboxamide] | 9.24 | 6.79

Compound | pIC50 [1] | pIC50 [2]
CCC(C)(C)CN1CCC(c2ccc(NC(=O)C3CN(c4cccnc4)C3)cc2)CC1 [Example 89, N-{4-[1-(2,2-dimethylbutyl)piperidin-4-yl]phenyl}-1-(pyridin-3-yl)azetidine-3-carboxamide] | 9.19 | 5.70
O=C(Nc1ccc(OC2CCN(C(=O)Cc3cccc(F)c3)CC2)cc1)C1CN(c2cccnn2)C1 [Example 227, N-[4-({1-[(3-fluorophenyl)acetyl]piperidin-4-yl}oxy)phenyl]-1-(pyridazin-3-yl)azetidine-3-carboxamide] | 9.16 | 7.18
O=C(Nc1ccc(OC2CCN(C(=O)CC3CC3)CC2)cc1)[C@H]1CCN(c2cccnc2)C1 [Example 16, (3S)-N-(4-{[1-(cyclopropylacetyl)piperidin-4-yl]oxy}phenyl)-1-(pyridin-3-yl)pyrrolidine-3-carboxamide] | 8.38 | 5.61
O=C(Nc1ccc(OC2CCN(C(=O)CC3CCCC3)CC2)cc1)C1CN(c2cccnc2)C1 [Example 69, N-(4-{[1-(cyclopentylacetyl)piperidin-4-yl]oxy}phenyl)-1-(pyridin-3-yl)azetidine-3-carboxamide] | 9.04 | 7.16
O=C(Nc1ccc(OC2CCN(C(=O)CCC(F)(F)F)CC2)cc1)C1CN(c2cccnc2)C1 [Example 51, 1-(pyridin-3-yl)-N-(4-{[1-(4,4,4-trifluorobutanoyl)piperidin-4-yl]oxy}phenyl)azetidine-3-carboxamide] | 8.93 | 6.96
Cc1ncccc1N1CC(C(=O)Nc2ccc(C3CCN(C(=O)c4ccoc4)CC3)cc2)C1 [Example 165, N-{4-[1-(furan-3-ylcarbonyl)piperidin-4-yl]phenyl}-1-(2-methylpyridin-3-yl)azetidine-3-carboxamide] | 7.17 | 7.45
CC(C)(O)C(=O)N1CC(Oc2ccc(NC(=O)C3CN(c4ccnnc4)C3)cc2)C1 [Example 207, N-(4-{[1-(2-hydroxy-2-methylpropanoyl)azetidin-3-yl]oxy}phenyl)-1-(pyridazin-4-yl)azetidine-3-carboxamide] | 7.06 | 6.85
O=C(Nc1ccc(OC2CCN(C(=O)c3cscn3)CC2)cc1)C1CN(c2ccnnc2)C1 [Example 272, 1-(pyridazin-4-yl)-N-(4-{[1-(1,3-thiazol-4-ylcarbonyl)piperidin-4-yl]oxy}phenyl)azetidine-3-carboxamide] | 7.28 | 6.78
O=C(Nc1ccc(OC2CCN(C(=O)c3nccs3)CC2)cc1)C1CN(c2ccnnc2)C1 [Example 283, 1-(pyridazin-4-yl)-N-(4-{[1-(1,3-thiazol-2-ylcarbonyl)piperidin-4-yl]oxy}phenyl)azetidine-3-carboxamide] | 7.49 | 7.14
O=C(Nc1ccc(C2CCN(C(=O)CC3CCOCC3)CC2)cc1)[C@H]1CCN(c2cccnn2)C1 [Example 312, (3S)-1-(pyridazin-3-yl)-N-{4-[1-(tetrahydro-2H-pyran-4-ylacetyl)piperidin-4-yl]phenyl}pyrrolidine-3-carboxamide] | 8.05 | 5.95
CC(=O)N[C@@H](CC(C)C)C(=O)N1CCC(c2ccc(NC(=O)C3CN(c4cccnc4C)C3)cc2)CC1 [Example 180, N-{4-[1-(N-acetyl-L-leucyl)piperidin-4-yl]phenyl}-1-(2-methylpyridin-3-yl)azetidine-3-carboxamide] | 6.91 | 6.52
CCC(C)CN1CCC(Oc2ccc(NC(=O)C3CN(c4cccnc4)C3)cc2)CC1 (centres unmarked) [Example 80, N-(4-{[1-(2-methylbutyl)piperidin-4-yl]oxy}phenyl)-1-(pyridin-3-yl)azetidine-3-carboxamide] | 9.16 | 5.80
COCCOCC(=O)N1CCC(c2ccc(NC(=O)C3CN(c4cccnc4)C3)cc2)CC1 [Example 123, N-(4-{1-[(2-methoxyethoxy)acetyl]piperidin-4-yl}phenyl)-1-(pyridin-3-yl)azetidine-3-carboxamide] | 9.55 | 7.18
O=C(Nc1ccc(OC2CCN(C(=O)Cc3ccc(F)cc3F)CC2)cc1)C1CN(c2cccnn2)C1 [Example 236, N-[4-({1-[(2,4-difluorophenyl)acetyl]piperidin-4-yl}oxy)phenyl]-1-(pyridazin-3-yl)azetidine-3-carboxamide] | 8.95 | 6.89
Cc1cccc(C(=O)N2CCC(c3ccc(NC(=O)C4CN(c5cccnn5)C4)cc3)CC2)c1 [Example 341, N-{4-[1-(3-methylbenzoyl)piperidin-4-yl]phenyl}-1-(pyridazin-3-yl)azetidine-3-carboxamide] | 9.14 | 7.45
